Columns and labels:
CYP2D6 = molecular target: T1, CYP2D6 (Homo sapiens, UniProt P10635); assay: CYP inhibition test (CYP2D6); assay type: in vitro ADME; conditions: pooled human liver microsomes; dextromethorphan O-demethylation
T1 construct: The commercially available pooled human liver microsomes are used as an enzyme resource; from tissue; host or cells: pooled human liver microsomes
How it was run: (§1)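 Metabolite formation was quantified by LC/MS/MS: dextrorphan (2D6, 5 μmol/L dextromethorphan), terfenadine alcohol (3A4, 1 μmol/L terfenadine), 4′-hydroxymephenytoin (2C19, 50 μmol/L S-mephenytoin) and hydroxytolbutamide (2C9, 100 μmol/L tolbutamide). Reactions used NADPH-started pooled human liver microsomes (0.2 mg/mL) at 37 °C with compound at 1–20 μmol/L (four points). IC50 was calculated by logistic model relative to the DMSO control.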

[1] = molecular target: T2, P-gp (MDR1 expressing LLC-PK1 cells) (Homo sapiens, UniProt P08183); assay: P-gp substrate test; assay type: in vitro ADME; conditions: net flux = Efflux Ratio in MDR1 expressing cells / Efflux Ratio in parent LLC-PK1 cells
T2 construct: host or cells: LLC-PK1
Experimental: • 1. Cell line: • a. MDR/LLC-PK1 (Becton Dickinson) • b. LLC-PK1 (Becton Dickinson) • 2. Reference substrates: • a Digoxin (2 μM)
1. […] After incubation for designed time at 37° C., an aliquot (50 μL) of transport buffer in the donor and receiver side were collected. Assay was performed by duplicate or triplicate. 3. Reference substrate and the present invention in the aliquot was quantified by LC/MS/MS.
Pc(cm/sec)−Permeated amount (pmol)/area of cell membrane (cm2)/initial concentration (nM)/incubation time (sec)
The efflux ratio was calculated using the following equation:
Efflux Ratio=Basolateral-to-Apical Pe/Apical-to-Basolateral Pe
The net flux was calculated using the following equation
Net flux=Efflux Ratio in MDK1 expressing cells/Efflux Ratio in parent cells

[2] = tested on: Aβ production in neuroblastoma SH-SY5Y cells (SH/APPwt); assay: β-amyloid (Aβ) production inhibitory effect in cell: 96-well; assay type: cell-based; conditions: Homo sapiens, Assay format 96-well
Experimental: Neuroblastoma SH-SY5V cells (SH/APPwt) with human wild-type R-APP excessively expressed therein were prepared at 8×10^5 cells/mL, and 150 μl portions thereof were inoculated into each well of a 96-well culture plate (Falcon). The cells were cultured for 2 hours at […]. in a 5% gaseous carbon dioxide incubator. […] Namely, the final DMSO concentration was 1%, and the amount of the cell culture was 200 μl. After the incubation was performed for 24 hours from the addition of the test compound, 100 μl of the culture supernatant was collected from each fraction. The amount of the Aβ in each fraction was measured. The Aβ amount was measured as follows. 10 μl of a homogeneous time resolved fluorescence (HTRF) measurement reagent (Amyloid β1-40 peptide: CIS bio international) and 10 μof the culture supernatant were put into a 384-well half area microplate (black microplate, Costar) and mixed with each other, and then left standing overnight at 4° C. while the light was shielded.

CYP2C9 = molecular target: T3, CYP2C9 (Homo sapiens, UniProt P11712); assay: CYP inhibition test (CYP2C9); assay type: in vitro ADME; conditions: pooled human liver microsomes; tolbutamide methyl-hydroxylation
T3 construct: The commercially available pooled human liver microsomes are used as an enzyme resource; from tissue; host or cells: pooled human liver microsomes
How it was run: as §1

Recombinant human BACE1 = molecular target: T4, Recombinant human BACE1 (Homo sapiens, UniProt P56817); assay: Assay of BACE1 inhibitory activity: 96-well; assay type: biochemical; conditions: Assay format 96-well
T4 construct: purchased R&D Systems
Experimental: 48.5 μL of substrate peptide solution (Biotin-XSEVNLDAEFRHDSGC-Eu: X=ε-amino-n-capronic acid. Eu=Europium cryplate) was added to each well of 96-hole half-area plate (a black plate: Costar), and after addition of 0.5 μl of the compound of the present invention (DMSO solution) and 1 μl of Recombinant human BACE1(R&D Systems), the reaction mixture was incubated at 30° C. for 3.5 hours. The substrate peptide was synthesized by reacting Cryptate TBPCOOH mono SMP (CIS bio international) with Biotin-XSEVNLDAEFRHDSGC (Peptide Institute, Inc.).
After the incubation for reaction, 50 μl of 8.0 μg/ml Streptavidin-XL665 (CIS bio international) dissolved in phosphate buffer (150 mmol/L […]—KH2PO4, pH 7.0, 0.008% Triton X-100, 0.8 mol/L KF) was added to each well and left stand at 30° C. for 45 minutes.

T3 sequence (P11712 whole entry): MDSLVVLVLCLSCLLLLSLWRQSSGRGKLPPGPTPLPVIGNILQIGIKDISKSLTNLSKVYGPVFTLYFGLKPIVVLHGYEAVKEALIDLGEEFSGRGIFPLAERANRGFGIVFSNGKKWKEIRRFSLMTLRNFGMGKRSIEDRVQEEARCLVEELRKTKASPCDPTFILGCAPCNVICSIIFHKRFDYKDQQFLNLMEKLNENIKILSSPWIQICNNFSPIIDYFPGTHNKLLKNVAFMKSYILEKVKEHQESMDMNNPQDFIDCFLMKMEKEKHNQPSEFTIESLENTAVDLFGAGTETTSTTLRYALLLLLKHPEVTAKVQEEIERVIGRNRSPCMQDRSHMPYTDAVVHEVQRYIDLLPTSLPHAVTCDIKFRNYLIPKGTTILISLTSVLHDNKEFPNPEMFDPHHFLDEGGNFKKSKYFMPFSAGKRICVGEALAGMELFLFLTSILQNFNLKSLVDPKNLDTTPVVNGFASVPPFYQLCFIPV
T1 sequence (P10635 whole entry): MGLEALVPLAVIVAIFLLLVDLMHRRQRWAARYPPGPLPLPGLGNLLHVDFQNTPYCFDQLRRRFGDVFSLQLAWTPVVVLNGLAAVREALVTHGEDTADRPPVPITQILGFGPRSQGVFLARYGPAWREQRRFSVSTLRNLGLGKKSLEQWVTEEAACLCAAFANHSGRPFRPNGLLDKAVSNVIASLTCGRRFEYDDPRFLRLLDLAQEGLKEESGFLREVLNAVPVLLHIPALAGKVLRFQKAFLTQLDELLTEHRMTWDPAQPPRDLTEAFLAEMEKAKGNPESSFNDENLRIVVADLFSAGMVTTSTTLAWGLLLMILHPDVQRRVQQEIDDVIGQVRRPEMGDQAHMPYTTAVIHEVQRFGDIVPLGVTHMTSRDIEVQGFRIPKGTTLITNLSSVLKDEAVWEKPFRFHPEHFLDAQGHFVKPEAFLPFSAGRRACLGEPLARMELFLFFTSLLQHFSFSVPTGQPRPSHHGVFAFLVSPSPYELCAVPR
T2 sequence (P08183 whole entry): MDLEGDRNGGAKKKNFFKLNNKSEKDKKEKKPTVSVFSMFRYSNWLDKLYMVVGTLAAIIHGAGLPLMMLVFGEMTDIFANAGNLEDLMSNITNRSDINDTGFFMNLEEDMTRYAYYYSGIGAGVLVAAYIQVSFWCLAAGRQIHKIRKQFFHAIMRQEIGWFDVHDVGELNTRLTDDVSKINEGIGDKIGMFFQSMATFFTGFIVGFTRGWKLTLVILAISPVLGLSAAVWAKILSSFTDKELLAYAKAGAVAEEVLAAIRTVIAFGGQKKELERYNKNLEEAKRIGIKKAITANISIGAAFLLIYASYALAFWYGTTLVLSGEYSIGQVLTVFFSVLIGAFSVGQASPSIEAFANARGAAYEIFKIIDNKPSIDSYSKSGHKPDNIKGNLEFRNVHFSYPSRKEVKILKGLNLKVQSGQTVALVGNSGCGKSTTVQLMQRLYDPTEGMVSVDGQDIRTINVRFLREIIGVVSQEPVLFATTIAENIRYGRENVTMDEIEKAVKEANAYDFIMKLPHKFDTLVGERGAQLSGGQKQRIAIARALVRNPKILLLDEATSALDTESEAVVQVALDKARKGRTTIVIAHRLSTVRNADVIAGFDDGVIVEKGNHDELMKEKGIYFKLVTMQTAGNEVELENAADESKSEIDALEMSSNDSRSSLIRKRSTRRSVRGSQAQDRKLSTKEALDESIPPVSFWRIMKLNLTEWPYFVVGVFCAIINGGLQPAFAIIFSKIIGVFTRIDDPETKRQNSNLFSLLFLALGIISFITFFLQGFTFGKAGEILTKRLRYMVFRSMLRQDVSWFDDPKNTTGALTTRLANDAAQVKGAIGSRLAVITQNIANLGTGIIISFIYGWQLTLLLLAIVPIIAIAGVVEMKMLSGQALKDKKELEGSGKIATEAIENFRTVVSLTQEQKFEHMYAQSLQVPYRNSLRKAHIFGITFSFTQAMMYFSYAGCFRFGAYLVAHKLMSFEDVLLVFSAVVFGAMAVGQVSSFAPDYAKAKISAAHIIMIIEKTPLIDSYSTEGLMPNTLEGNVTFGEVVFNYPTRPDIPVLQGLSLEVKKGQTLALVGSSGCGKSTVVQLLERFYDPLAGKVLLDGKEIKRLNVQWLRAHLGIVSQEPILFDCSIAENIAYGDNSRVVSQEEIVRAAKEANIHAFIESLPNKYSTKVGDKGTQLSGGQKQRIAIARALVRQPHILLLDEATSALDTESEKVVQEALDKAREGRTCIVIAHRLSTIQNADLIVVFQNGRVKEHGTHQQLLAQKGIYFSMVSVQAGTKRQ
T4 sequence (P56817 46-501): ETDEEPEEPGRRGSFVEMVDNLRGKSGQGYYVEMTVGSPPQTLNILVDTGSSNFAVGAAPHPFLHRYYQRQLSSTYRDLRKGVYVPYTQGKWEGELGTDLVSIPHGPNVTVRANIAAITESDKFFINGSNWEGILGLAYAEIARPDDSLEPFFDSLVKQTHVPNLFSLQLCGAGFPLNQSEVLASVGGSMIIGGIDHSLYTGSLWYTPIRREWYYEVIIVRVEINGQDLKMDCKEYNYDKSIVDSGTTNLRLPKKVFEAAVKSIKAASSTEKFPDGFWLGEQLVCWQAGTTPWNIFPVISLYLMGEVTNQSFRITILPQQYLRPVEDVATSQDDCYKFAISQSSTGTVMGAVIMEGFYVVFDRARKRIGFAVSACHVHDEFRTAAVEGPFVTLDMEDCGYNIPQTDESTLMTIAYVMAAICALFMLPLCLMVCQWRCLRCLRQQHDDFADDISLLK

Row | IC50 (CYP2D6) | ER ratio (Cell: MDR1/LLC-PK1) [1] | IC50 [2] | IC50 (CYP2C9) | IC50 (Recombinant human BACE1) | SMILES
1 | ≥ 20000 nM | 1.2 | 0.504 nM | ≥ 20000 nM | 13.3 nM | C[C@H]1SC(N)=N[C@](C)(c2nc(NC(=O)c3ccc(C#N)cn3)ccc2F)[C@H]1F [Compound I-1]
2 |  |  | 3.73 nM | ≥ 10000 nM | 67.9 nM | C[C@H]1SC(N)=N[C@](C)(c2nc(NC(=O)c3ccc(F)cn3)ccc2F)[C@H]1F [Compound I-2]
3 |  |  | 3.59 nM | ≥ 10000 nM | 61.3 nM | C[C@H]1SC(N)=N[C@](C)(c2nc(NC(=O)c3cnc(OCF)cn3)ccc2F)[C@H]1F [Compound I-3]
4 | ≥ 20000 nM |  | 0.697 nM | ≥ 10000 nM | 11.5 nM | C[C@]1(c2nc(NC(=O)c3ccc(C#N)cn3)ccc2F)N=C(N)S[C@H](CF)[C@@H]1F [Compound I-4]
5 |  |  | 2.52 nM |  | 47.5 nM | C[C@@]1(c2cc(NC(=O)c3ccc(C#N)cn3)ccc2F)C[C@@](C)(C(F)(F)F)OC(N)=N1 [Compound I-7]
6 |  | 1.3 | 0.26 nM |  | 11.8 nM | COc1cnc(C(=O)Nc2ccc(F)c([C@@]3(C)N=C(N)S[C@H](C)[C@@H]3F)c2)cn1 [Compound I-8]
7 | ≥ 20000 nM | 4 | 0.708 nM | ≥ 20000 nM | 25.8 nM | C[C@]1(c2cc(NC(=O)c3ccc(C#N)cn3)ccc2F)N=C(N)O[C@H](CF)[C@@H]1OCC(F)(F)F [Compound I-10]
8 | ≥ 10000 nM |  | 4.21 nM | ≥ 10000 nM | 102 nM | C[C@]1(c2cc(NC(=O)c3ccc(F)cn3)ccc2F)N=C(N)O[C@H](CF)[C@@H]1OCC(F)(F)F [Compound I-11]
9 | ≥ 10000 nM |  | 1.88 nM | ≥ 20000 nM | 56.8 nM | C[C@]1(c2cc(NC(=O)c3cnc(OCF)cn3)ccc2F)N=C(N)O[C@H](CF)[C@@H]1OCC(F)(F)F [Compound I-12]
10 | ≥ 20000 nM | 2.4 | 1.12 nM | ≥ 20000 nM | 32 nM | C[C@H](F)[C@H]1OC(N)=N[C@](C)(c2cc(NC(=O)c3ccc(C#N)cn3)ccc2F)[C@H]1F [Compound I-13]
11 | ≥ 20000 nM | 2.7 | 0.65 nM | ≥ 20000 nM | 15.2 nM | C[C@@H](F)[C@H]1OC(N)=N[C@](C)(c2cc(NC(=O)c3ccc(C#N)cn3)ccc2F)[C@H]1F [Compound I-15]
12 |  | 0.73 | 3.23 nM | ≥ 20000 nM | 59.7 nM | COc1cnc(C(=O)Nc2ccc(F)c([C@@]3(C)N=C(N)O[C@H]([C@H](C)F)[C@@H]3F)c2)cn1 [Compound I-17]
13 | ≥ 20000 nM |  | 0.573 nM | ≥ 20000 nM | 18 nM | CO[C@H]1[C@@H](CF)OC(N)=N[C@]1(C)c1cc(NC(=O)c2ccc(C#N)cn2)ccc1Cl [Compound I-18]
14 |  |  | 1.2 nM | ≥ 20000 nM | 46.5 nM | CO[C@H]1[C@@H](CF)OC(N)=N[C@]1(C)c1cc(NC(=O)c2cnc(OCF)cn2)ccc1Cl [Compound I-19]
15 | ≥ 20000 nM |  | 4.19 nM | ≥ 20000 nM | 72.7 nM | CO[C@H]1[C@@H](CF)OC(N)=N[C@]1(C)c1cc(NC(=O)c2ccc(F)cn2)ccc1Cl [Compound I-20]
16 | ≥ 10000 nM |  | 2.28 nM | ≥ 20000 nM | 97 nM | CO[C@H]1[C@@H](CF)OC(N)=N[C@]1(C)c1cc(NC(=O)c2cnc(OCF)cn2)ccc1F [Compound I-24]
17 | ≥ 20000 nM |  | 4.31 nM | ≥ 20000 nM | 156 nM | CO[C@H]1[C@@H](CF)OC(N)=N[C@]1(C)c1cc(NC(=O)c2ccc(F)cn2)ccc1F [Compound I-25]
18 | ≥ 20000 nM |  | 6.7 nM | ≥ 20000 nM | 40.5 nM | C[C@@H]1[C@@H](C(F)(F)F)OC(N)=N[C@]1(C)c1cc(NC(=O)c2ccc(C#N)cn2)ccc1F [Compound I-27]
19 | ≥ 20000 nM | 1.2 | 1.5 nM | ≥ 20000 nM | 22.6 nM | C[C@H]1[C@@H](C(F)(F)F)OC(N)=N[C@]1(C)c1cc(NC(=O)c2ccc(C#N)cn2)ccc1F [Compound I-28]
20 | ≥ 20000 nM |  | 93.5 nM | ≥ 20000 nM | 1560 nM | C[C@H]1[C@H](C(F)(F)F)OC(N)=N[C@]1(C)c1cc(NC(=O)c2ccc(C#N)cn2)ccc1F [Compound I-29]
21 |  |  | 2.33 nM | ≥ 20000 nM | 52.1 nM | C[C@H]1[C@@H](C(F)(F)F)OC(N)=N[C@]1(C)c1cc(NC(=O)c2cnc(OCF)cn2)ccc1F [Compound I-30]
22 | ≥ 20000 nM | 2.9 | 0.668 nM | ≥ 20000 nM | 22.3 nM | C[C@H]1[C@@H](C(F)F)OC(N)=N[C@]1(C)c1cc(NC(=O)c2ccc(C#N)cn2)ccc1F [Compound I-31]
23 | ≥ 10000 nM |  | 2.39 nM | ≥ 20000 nM | 43.6 nM | Cc1nc(C(=O)Nc2ccc(F)c([C@@]3(C)N=C(N)O[C@H](C(F)(F)F)[C@@H]3C)c2)co1 [Compound I-32]
24 |  | 3.2 | 1.07 nM | ≥ 20000 nM | 49.2 nM | C[C@H]1[C@@H](C(F)F)OC(N)=N[C@]1(C)c1cc(NC(=O)c2cnc(OCF)cn2)ccc1F [Compound I-33]
25 | ≥ 20000 nM | 2.1 | 0.391 nM | ≥ 20000 nM | 13.1 nM | C[C@]1(c2cc(NC(=O)c3ccc(C#N)cn3)ccc2F)N=C(N)O[C@H]2[C@@H]1OCC2(F)F [Compound I-35]
26 | ≥ 10000 nM | 4.6 | 2.11 nM | ≥ 20000 nM | 69.6 nM | C[C@]1(c2cc(NC(=O)c3cnc(OCF)cn3)ccc2F)N=C(N)OCC12CC(F)(F)C2 [Compound I-44]
27 | ≥ 20000 nM |  | 5.71 nM | ≥ 20000 nM | 134 nM | C[C@]1(c2cc(NC(=O)c3ccc(F)cn3)ccc2F)N=C(N)OCC12CC(F)(F)C2 [Compound I-45]
